Source: US10370351B2, “Photoinduced electron transfer voltage-sensitive compounds” (The Regents of the University of California, priority 2016, dated 2019)
In brackets after ≈: the same amount, converted by molar mass.

Key:
[1] = Spectroscopic studies (absorbance, emission, quantum yield); type: physicochemical; conditions: phosphate-buffered saline, pH 7.4 with 0.1% Triton X-100
Procedure: Stock solutions of VF dyes were prepared in DMSO (1.0-10 mM) and diluted with PBS (100 mM Na2HPO4, pH 7.4, 0.1% Triton-X). UV-Vis absorbance and fluorescence spectra were recorded using a Shimadzu 2501 Spectrophotometer (Shimadzu) and a Quantamaster Master 4 L-format scanning spectrofluorometer (Photon Technologies International). The fluorometer is equipped with an LPS-220B 75-W xenon lamp and power supply, A-1010B lamp housing with integrated igniter, switchable 814 photon-counting/analog photomultiplier detection unit, and MD5020 motor driver. Samples were measured in 1-cm path length quartz cuvettes (Starna Cells).

HEK293T cells [2] = experiment: Voltage sensitivity in HEK cells, whole-cell patch clamp with fluorescence imaging; type: cell-based; conditions: for ΔF/F (%) voltage sensitivity: per 100 mV, HEK cells, whole-cell voltage clamp, 200 nM VF; for Improvement (%) in voltage sensitivity: relative to corresponding msVF
Procedure: Functional imaging of VF dyes was performed using a 20× objective paired with image capture from the EMCCD camera at a sampling rate of 0.5 kHz. VF dyes were excited using the 488 nm LED with an intensity of 2.5 W/cm^2. For initial voltage characterization emission was collected with the QUAD filter (430/32, 508/14, 586/30, 708/98 nm) after passing through a quadruple dichroic mirror (432/38, 509/22, 586/40, 654 nm LP).
Recordings were obtained with an Axopatch 200B amplifier (Molecular Devices) at room temperature. The signals were digitized with Digidata 1332A, sampled at 50 kHz and recorded with pCLAMP 10 software (Molecular Devices) on a PC. Fast capacitance was compensated in the on-cell configuration. For all electrophysiology experiments, recordings were only pursued if series resistance in voltage clamp was less than 30 MΩ. For whole-cell, voltage clamp recordings in HEK 293T cells, cells were held at −60 mV and 100 ms hyper- and depolarizing steps applied from −100 to +100 mV in 20 mV increments. For whole-cell, following membrane rupture, resting membrane potential was assessed and recorded at I=0 and monitored during the data acquisition.
Analysis of voltage sensitivity in HEK cells was performed using custom Matlab routines. Briefly, a region of interest (ROI) was selected automatically based on fluorescence intensity and applied as a mask to all image frames. Fluorescence intensity values were calculated at known baseline and voltage step epochs.
To determine the voltage sensitivity of each of the dyes, whole-cell patch clamp electrophysiology was performed on HEK293T cells loaded with 200 nM VF (FIG. 8a-d). Depolarization of the cell membrane in the presence of VF dye results in a large increase of fluorescence, while hyperpolarization results in lower levels of fluorescence (FIG. 8c-d; FIG. 9). As an illustrative comparison, msVF2.2(OMe). […] Cl, at 48% per 100 mV. The disulfoVF2.2(OMe).

rat hippocampal neurons = experiment: Staining and voltage imaging of cultured rat hippocampal neurons; type: cell-based
Source text: Cl, it was expected that disulfoVF2.2(OMe). Cl would be well-suited to observing membrane potential changes in neurons. Cultured rat hippocampal neurons bathed in disulfoVF2.2(OMe). […] Cl was also used to image neuronal activity in midbrain dopaminergic (mDA) neurons derived from cultured human pluripotent stem cells (hPSCs) in culture (FIG. 11b) using differentiation conditions adapted from previously established protocols. mDA neurons stained with dsVF2.2(OMe). […] Functional analysis of human- or patient-derived differentiated neurons in a simple, non-invasive manner enabled by dsVF2.2(OMe). Cl can provide an important diagnostic tool alongside more conventional methods in ascertaining proper differentiation as well as in investigating human disease phenotypes.

hPSC-derived mDA neurons = experiment: Voltage imaging of hPSC-derived midbrain dopaminergic (mDA) neurons; type: cell-based, human; conditions: mDA neurons stained with 500 nM dye
Procedure: mDA neurons were derived from H1 human embryonic stem cells (hESCs) using medium conditions as described in Kriks et al., Nature, 480, 547, 2011). On Day 25 of differentiation, cells were harvested from the culture platform and pipetted to generate small 50-100 μm clusters, and seeded on 12 mm glass coverslips coated with 20 μg/ml Laminin (ThermoFischer Scientific). Cells were subsequently matured for 10 days before voltage sensitive imaging.
Functional imaging of mDA cells was performed using a 20× objective paired with image capture from the ORCA-Flash4.0 camera (Hamamatsu) at a sampling rate of 100 Hz. VoltageFluor dye was excited using the 488 nm LED with an intensity of 2.5 W/cm^2. Light was collected with the QUAD filter (430/32, 508/14, 586/30, 708/98 nm) after passing through a quadruple dichroic mirror (432/38, 509/22, 586/40, 654 nm LP). For image analysis, a custom Matlab routine was employed. Briefly, a TIFF stack was imported into Matlab and the intensity values a user-designated block of pixels was extracted as an array. The intensity over time for each block was then baseline corrected by fitting to a 2nd degree polynomial. […]

HEK293T cells [3] = experiment: Membrane localization after bath loading, fluorescence imaging; type: cell-based; conditions: HEK cells
Source text: A total of 9 new dyes were made: 6 new dsVF dyes and 3 new msVF dyes. Both msVF and dsVF dyes display similar excitation and emission profiles to previously reported msVF dyes (Table 1, FIG. 7A-I), and all localized to the plasma membrane when applied to HEK293T cells via bath loading (FIG. 8a-b).

HEK cells = experiment: Determination of photostability in HEK cells; type: cell-based; conditions: compared to msVF2.2(OMe).Cl; 1 μM, 488 nm LED
Procedure: HEK cells were incubated separately with ms- and ds-VF2.1.Cl and VF2.2(OMe). Cl at 1 μM in HBSS at 37 degrees Celsius for 15 minutes. Data were acquired with a W-Plan-Apo 63×/1.0 objective (Zeiss) and the ORCA-Flash4.0 camera (Hamamatsu). Images were exposed for 10 milliseconds each across 50 seconds with a constant illumination of the 488 nm LED (153 W/cm^2). The excitation light was collected with the QUAD filter (430/32, 508/14, 586/30, 708/98 nm) after passing through a quadruple dichroic mirror (432/38, 509/22, 586/40, 654 nm LP). The fluorescence curves were background subtracted and then normalized to the fluorescence intensity at t=0 and averaged across five cells of each dye.

[4] = Solubility of VoltageFluor dyes and sulfofluoresceins in water; type: physicochemical; conditions: for improvement of aqueous solubility by second sulfonate: ds vs ms VF dye, distilled water, 0.1% DMSO, 20 degrees Celsius, UV-Vis; for solubility at 3 days: water, 20 °C, kinetic from dmso stock, H2O with 0.1% DMSO, read-out: aqueous solubility
Procedure: Suspensions of 5 milligrams each of solid mono- and disulfo-dichlorofluoresceins in 5 mL of distilled water were created. Over the course of three days, 5 milligrams of solid material was added at a time, ensuring that no visible particulates were present in the solution prior to addition. At the end of the experiment, the suspension was filtered through filter paper and then through a 0.22-μm polytetrafluoroethylene filter into a scintillation vial. 10 μL of this filtrate was used as a stock solution to determine the concentration of fluorescein present via UV-Vis spectrophotometry and the remainder was lyophilized and the amount of solid resulting was measured using an analytical microbalance. For VF dyes (VF2.1.Cl and VF2.2(OMe).Cl, both ms and ds versions), saturated solutions in distilled water were prepared via dilution from a 100 μM stock in DMSO for a resulting solution containing 0.1% DMSO. The solutions were allowed to sit overnight at 20 degrees Celsius and then filtered through 0.22-μm filters. The resulting filtrates were used as stock solutions to determine the amount of VF present via UV-Vis spectrophotometry.

Φf1 (fluorescence quantum yield) [1]	λabs [1]	λem [1]	Compound	ΔF/F (%) voltage sensitivity (HEK293T cells [2])	Improvement (%) in voltage sensitivity (HEK293T cells [2])	other results
0.07	520 nm	540 nm	CCN(CC)c1ccc(/C=C/c2ccc(/C=C/c3cc(S(=O)(=O)O)c(-c4c5cc(Cl)c(=O)cc-5oc5cc(O)c(Cl)cc45)c(S(=O)(=O)O)c3)cc2)c(OC)c1 [dsVF2.2(OMe).Cl]	63%	19%	membrane staining of neurons (rat hippocampal neurons; confocal microscopy, 500 nM): bright membrane staining; detection of membrane potential changes (rat hippocampal neurons; rat hippocampal neurons): can be used to detect membrane potential changes in rat hippocampal neurons; imaging of neuronal activity (hPSC-derived mDA neurons): revealed distinct firing patterns; membrane localization (HEK293T cells [3]): clear membrane localization; photostability (HEK cells): good photostability; improvement of aqueous solubility by second sulfonate [4]: 55%; ΔF/F (%) voltage sensitivity (HEK293T cells [2]; listed as disulfoVF2.2(OMe). Cl): 63%; ΔF/F (%) voltage sensitivity (HEK293T cells [2]; listed as disulfoVF2.2(OMe).Cl): 63%; ΔF/F (%) voltage sensitivity (HEK293T cells [2]; listed as dsVF2.2(OMe). Cl): approximately 63%
0.13	507 nm	529 nm	CN(C)c1ccc(/C=C/c2ccc(/C=C/c3cc(S(=O)(=O)O)c(-c4c5cc(F)c(=O)cc-5oc5cc(O)c(F)cc45)c(S(=O)(=O)O)c3)cc2)cc1 [dsVF2.1.F]	33%	25%	–
0.08	520 nm	539 nm	CN(C)c1ccc(/C=C/c2ccc(/C=C/c3cc(S(=O)(=O)O)c(-c4c5cc(Cl)c(=O)cc-5oc5cc(O)c(Cl)cc45)c(S(=O)(=O)O)c3)cc2)cc1 [dsVF2.1.Cl]	36%	21%	improvement of aqueous solubility by second sulfonate [4]: 22%

More lines, now with the values behind:

Compound	Φf1 (fluorescence quantum yield) [1]	λabs [1]	λem [1]	ΔF/F (%) voltage sensitivity (HEK293T cells [2])	Improvement (%) in voltage sensitivity (HEK293T cells [2])	other results
CCN(CC)c1ccc(/C=C/c2ccc(/C=C/c3cc(S(=O)(=O)O)c(-c4c5ccc(=O)cc-5oc5cc(O)ccc45)c(S(=O)(=O)O)c3)cc2)c(OC)c1 [dsVF2.2(OMe).H]	0.11	510 nm	530 nm	57%	9%	–
CCN(CC)c1ccc(/C=C/c2ccc(/C=C/c3cc(S(=O)(=O)O)c(-c4c5cc(F)c(=O)cc-5oc5cc(O)c(F)cc45)c(S(=O)(=O)O)c3)cc2)c(OC)c1 [dsVF2.2(OMe).F]	0.06	509 nm	529 nm	60%	22%	–
CCN(CC)c1ccc(/C=C/c2ccc(/C=C/c3ccc(-c4c5cc(F)c(=O)cc-5oc5cc(O)c(F)cc45)c(S(=O)(=O)O)c3)cc2)c(OC)c1 [msVF2.2(OMe).F]	0.06	505 nm	524 nm	49%	–	–
CCN(CC)c1ccc(/C=C/c2ccc(/C=C/c3ccc(-c4c5ccc(=O)cc-5oc5cc(O)ccc45)c(S(=O)(=O)O)c3)cc2)c(OC)c1 [msVF2.2(OMe).H]	0.08	508 nm	530 nm	53%	–	–
CN(C)c1ccc(/C=C/c2ccc(/C=C/c3cc(S(=O)(=O)O)c(-c4c5ccc(=O)cc-5oc5cc(O)ccc45)c(S(=O)(=O)O)c3)cc2)cc1 [dsVF2.1.H]	0.14	509 nm	540 nm	20%	17%	–
O=c1cc2oc3cc(O)c(Cl)cc3c(-c3c(S(=O)(=O)O)cc(Br)cc3S(=O)(=O)O)c-2cc1Cl [ds-dichlorofluorescein, 5-bromo-2′,7′-dichlorodisulfofluorescein]	–	–	–	–	–	solubility at 3 days [4]: ≤ 940 µM
CCN(CC)c1ccc(/C=C/c2ccc(/C=C/c3ccc(-c4c5cc(Cl)c(=O)cc-5oc5cc(O)c(Cl)cc45)c(S(=O)(=O)O)c3)cc2)c(OC)c1 [msVF2.2(OMe).Cl]	0.06	518 nm	534 nm	53%	–	ΔF/F (%) voltage sensitivity (HEK293T cells [2]; listed as msVF2.2(OMe). Cl): approximately 53%
O=c1cc2oc3cc(O)c(Cl)cc3c(-c3ccc(Br)cc3S(=O)(=O)O)c-2cc1Cl [ms-dichlorofluorescein, 5-bromo-2′,7′-dichlorosulfofluorescein]	–	–	–	–	–	solubility at 3 days [4]: 410 µM (≈ 212 µg/mL)
5-bromo-2′,7′-dichlorodisulfofluorescein [ds-dichlorofluorescein]	–	–	–	–	–	improvement of aqueous solubility ([4]; relative to monosulfo 5, spectroscopically or gravimetrically): 2.3 fold
